39 molecules from ChEMBL document CHEMBL1143218 (Bioorg Med Chem Lett, 2008) can be followed below.

The structures appear in SMILES notation. Bounds are passed on as bounds.

Test [1] has as its target Sodium-dependent serotonin transporter (Homo sapiens, UniProt P31645).
The target in test [2] is Sodium-dependent dopamine transporter (Homo sapiens, UniProt Q01959).
Chain of Sodium-dependent dopamine transporter (Q01959 whole entry): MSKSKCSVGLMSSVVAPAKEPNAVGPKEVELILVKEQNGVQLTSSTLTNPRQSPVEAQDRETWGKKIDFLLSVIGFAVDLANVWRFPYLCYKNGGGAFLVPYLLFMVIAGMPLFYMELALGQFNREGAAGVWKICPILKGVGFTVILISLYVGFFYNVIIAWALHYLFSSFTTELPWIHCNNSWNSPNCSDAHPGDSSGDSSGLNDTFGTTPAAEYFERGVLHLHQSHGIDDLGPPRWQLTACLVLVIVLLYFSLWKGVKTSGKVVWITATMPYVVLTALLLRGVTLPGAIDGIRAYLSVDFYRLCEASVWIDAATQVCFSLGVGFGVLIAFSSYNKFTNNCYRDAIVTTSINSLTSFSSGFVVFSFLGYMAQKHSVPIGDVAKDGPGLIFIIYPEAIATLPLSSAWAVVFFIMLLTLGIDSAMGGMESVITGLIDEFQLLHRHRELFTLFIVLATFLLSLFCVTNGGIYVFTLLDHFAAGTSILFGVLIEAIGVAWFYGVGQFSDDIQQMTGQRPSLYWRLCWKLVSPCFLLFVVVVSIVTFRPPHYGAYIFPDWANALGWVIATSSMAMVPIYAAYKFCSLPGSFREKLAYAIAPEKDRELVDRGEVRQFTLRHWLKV

Chain of Sodium-dependent serotonin transporter (P31645 whole entry): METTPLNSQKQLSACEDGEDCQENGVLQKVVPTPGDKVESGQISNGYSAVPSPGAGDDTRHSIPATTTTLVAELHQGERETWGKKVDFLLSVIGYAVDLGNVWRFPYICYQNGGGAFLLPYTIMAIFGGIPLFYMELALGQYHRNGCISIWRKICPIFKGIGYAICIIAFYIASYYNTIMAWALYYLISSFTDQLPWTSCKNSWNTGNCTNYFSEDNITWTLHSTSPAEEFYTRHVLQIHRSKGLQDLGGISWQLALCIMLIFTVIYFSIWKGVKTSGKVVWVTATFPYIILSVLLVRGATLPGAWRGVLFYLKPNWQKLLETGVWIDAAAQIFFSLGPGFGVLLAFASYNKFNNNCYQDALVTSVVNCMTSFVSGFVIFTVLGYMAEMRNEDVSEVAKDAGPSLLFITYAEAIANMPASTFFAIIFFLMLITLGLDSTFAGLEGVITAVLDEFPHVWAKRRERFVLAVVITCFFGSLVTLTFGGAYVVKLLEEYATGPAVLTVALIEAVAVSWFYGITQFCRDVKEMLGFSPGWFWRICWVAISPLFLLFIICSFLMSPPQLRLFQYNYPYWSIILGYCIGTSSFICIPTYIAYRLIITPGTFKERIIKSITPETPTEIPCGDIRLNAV

Turning to `CCN(CC)C(=O)C1(c2ccccc2)CC1CNCc1ccccn1` (racemic), the IC50 is 3.5 µM in test [1] and 6.2 µM in test [2].

Take `NCC1CC1(C(=O)N1CCOCC1)c1ccccc1` (racemic): the half-maximal inhibitory concentration (IC50) in test [1] turned out to be 1.7 µM; in test [2], 7.4 µM.

In the case of `CCN(C(=O)C1(c2ccccc2)CC1CN)c1ccccc1` (racemic), the half-inhibitory concentration (IC50) is 4.4 µM in test [1] and above 10 µM in test [2].

As for `CCN(CC)C(=O)C1(c2ccccc2)CC1CNCc1ccncc1` (racemic), the IC50 in test [1] and in test [2] was above 10 µM in each case.

For the molecule `CCCN(CC)C(=O)C1(c2ccccc2)CC1CN` (racemic), the half-inhibitory concentration (IC50) in test [1] is 1.7 µM; in test [2], above 10 µM.

Turning to `CCN(C(=O)C1(c2ccccc2)CC1CN)C(C)(C)C` (racemic), the IC50 in test [1] and in test [2] was above 10 µM each time.

On to `CCN(CC)C(=O)C1(c2ccccc2)CC1CNCc1ccco1` (racemic), for which the IC50 in test [1] and in test [2] was above 10 µM throughout.

Regarding `CCN(CC)C(=O)C1(c2ccccc2)CC1CNCc1cnco1` (racemic), the IC50 was 4.8 µM in test [1] and above 10 µM in test [2].

In test [2], `NCC1C[C@@]1(C(=O)N1CCCC1)c1ccccc1` (mixture of isomers) had a 50% inhibitory concentration (IC50) above 10 µM.

Take `CCN(CC)C(=O)C1(c2ccccc2)CC1CNCc1cccnc1` (racemic): the concentration for half-maximal inhibition (IC50) in test [1] and in test [2] was above 10 µM in each case.

For the molecule `CCN(C(=O)C1(c2ccccc2)CC1CN)C1CCCCC1` (racemic), the figures for the IC50 in test [1] and in test [2] were 7.5 µM and above 10 µM, respectively.

Molecule `NCC(=O)NCC1CC1(C(=O)C1NCCc2ccccc21)c1ccccc1` (racemic) came in with an IC50 in test [2] above 10 µM.

In the case of `CCN(CCOC)C(=O)C1(c2ccccc2)CC1CN` (racemic), the IC50 in test [1] was 1.3 µM; in test [2], above 10 µM.

For `CCN(CC)C(=O)C1(c2ccccc2)CC1CNCc1ccc[nH]1` (racemic), the 50% inhibitory concentration (IC50) was 4.4 µM in test [1] and above 10 µM in test [2].

As for `NCC1CC1(C(=O)N1CCCCC1)c1ccccc1` (racemic), the IC50 is 1.2 µM in test [1] and 4.6 µM in test [2].

With `NCC1CC1(C(=O)N1CCc2ccccc21)c1ccccc1` (racemic), the figures for the 50% inhibitory concentration (IC50) in test [1] and in test [2] were 0.013 µM and 3.9 µM, respectively.

As for `CCNCC1CC1(C(=O)N(CC)CC)c1ccccc1` (racemic), the IC50 in test [1] was 1.3 µM; in test [2], above 10 µM.

With `CCN(CC)C(=O)C1(c2ccccc2)CC1CNCC1CCCC1` (racemic), the IC50 in test [1] and in test [2] was above 10 µM throughout.

Regarding `CCNC(=O)[C@@]1(c2ccccc2)CC1CN` (mixture of isomers), the IC50 in test [1] and in test [2] was above 10 µM throughout.

Regarding `NCC1CC1(C(=O)N1CCCc2ccccc21)c1ccccc1` (racemic), the IC50 in test [1] is 0.1 µM; in test [2], above 10 µM.

`NCC1CC1(C(=O)NCc1ccccc1)c1ccccc1` (racemic): the IC50 was 3.2 µM in test [1] and above 10 µM in test [2].

For `CCN(C)C(=O)C1(c2ccccc2)CC1CN` (racemic), the results for the 50% inhibitory concentration (IC50) in test [1] and in test [2] were 0.83 µM and 2.4 µM, respectively.

For the molecule `CCN(Cc1ccccc1)C(=O)C1(c2ccccc2)CC1CN` (racemic), the IC50 in test [1] was 0.16 µM; in test [2] it was above 10 µM.

Regarding `CC(C)N(C(=O)[C@@]1(c2ccccc2)CC1CN)C(C)C` (mixture of isomers), the IC50 in test [1] and in test [2] was above 10 µM throughout.

`NCC1CC1(C(=O)N1CCCCCC1)c1ccccc1` (racemic): the half-maximal inhibitory concentration (IC50) in test [1] was 0.64 µM; in test [2], above 10 µM.

As for `NCC(=O)NCC1CC1(C(=O)N1CCc2ccccc21)c1ccccc1` (racemic), the concentration for half-maximal inhibition (IC50) was 0.077 µM in test [1] and above 10 µM in test [2].

Take `CCCCN(CC)C(=O)C1(c2ccccc2)CC1CN` (racemic): the results for the half-inhibitory concentration (IC50) in test [1] and in test [2] were 2 µM and above 10 µM, respectively.

With `CCN(CC)C(=O)[C@@]1(c2ccccc2)C[C@H]1CNC(=O)CN` (racemic), the half-inhibitory concentration (IC50) in test [1] was 2.2 µM; in test [2] it was above 10 µM.

With `CCN(CC)C(=O)C1(c2ccccc2)CC1CNCc1ncco1` (racemic), the IC50 in test [1] is 1.6 µM; in test [2] it was above 10 µM.

On to `CC(C)N(C(=O)C1(c2ccccc2)CC1CNC(=O)CN)C(C)C` (racemic), for which the 50% inhibitory concentration (IC50) in test [1] was above 10 µM; in test [2] it was 4.6 µM.

In the case of `CCN(CC)C(=O)[C@@]1(c2ccccc2)CC1CNC` (mixture of isomers), the figures for the IC50 in test [1] and in test [2] were 5.4 µM and above 10 µM, respectively.

On to `C=CCN(CC)C(=O)C1(c2ccccc2)CC1CN` (racemic), for which the half-maximal inhibitory concentration (IC50) in test [1] is 0.28 µM; in test [2], above 10 µM.

In the case of `CCN(CC)C(=O)C1(c2ccccc2)CC1CNCC(OC)OC` (racemic), the IC50 in test [1] is 1.1 µM; in test [2], above 10 µM.

With `CCN(CC)C(=O)C1(c2ccccc2)CC1CNCC(C)C` (racemic), the IC50 in test [1] and in test [2] was above 10 µM each time.

`NCC1CC1(C(=O)NC1CC1)c1ccccc1` (racemic): the IC50 in test [1] and in test [2] was above 10 µM each time.

On to `NCC1CC1(C(=O)Nc1ccccc1)c1ccccc1` (racemic), for which the IC50 in test [1] and in test [2] was above 10 µM each time.

Regarding `NCC1CC1(C(=O)C1NCCc2ccccc21)c1ccccc1` (racemic), the IC50 in test [2] was above 10 µM.

For `CCCCNCC1CC1(C(=O)N(CC)CC)c1ccccc1` (racemic), the IC50 in test [1] and in test [2] was above 10 µM throughout.

As to `CCN(CC)C(=O)C1(c2ccccc2)CC1CN(C)C` (racemic) [N,N-DIMETHYL MILNACIPRAN], the 50% inhibitory concentration (IC50) in test [1] is above 10 µM; in test [2], 4.5 µM.

As a reminder, the IC50 is the concentration that gives 50% inhibition.
